In the kinase profiling compilation of Christmann-Franck et al. (2016):

Experiments:
Test in all cases: radiometric filter-binding kinase assay
[1] = tested on: AKT2 (human), P31751 [S474D]
CAMKK2 (human) = CAMKK2 (human) (UniProt Q96RR4)
CHEK1 (human) = CHEK1 (human) (UniProt O14757)
CLK2 (human) = CLK2 (human) (UniProt P49760)
CSNK1D (human) = CSNK1D (human) (UniProt P48730)
DYRK1A (human) = DYRK1A (human) (UniProt Q13627)
EPHA4 (human) = EPHA4 (human) (UniProt P54764)
HIPK3 (human) = HIPK3 (human) (UniProt Q9H422)
IGF1R (human) = IGF1R (human) (UniProt P08069)
IKBKE (human) = IKBKE (human) (UniProt Q14164)
IRAK4 (human) = IRAK4 (human) (UniProt Q9NWZ3)
MAP3K7 TAB1 (human) = MAP3K7 TAB1 (human) (UniProt Q15750+O43318)
MAPK12 (human) = MAPK12 (human) (UniProt P53778)
MAPK14 (human) = MAPK14 (human) (UniProt Q16539)
MAPK15 (human) = MAPK15 (human) (UniProt Q8TD08)
MAPK3 (human) = MAPK3 (human) (UniProt P27361)
MAPKAPK2 (human) = MAPKAPK2 (human) (UniProt P49137)
MARK1 (human) = MARK1 (human) (UniProt Q9P0L2)
MARK2 (human) = MARK2 (human) (UniProt Q7KZI7)
MST4 (human) = MST4 (human) (UniProt Q9P289)
NEK2 (human) = NEK2 (human) (UniProt P51955)
NEK6 (human) = NEK6 (human) (UniProt Q9HC98)
[2] = tested on: PAK2 (human), Q13177 [T402E]
PAK4 (human) = PAK4 (human) (UniProt O96013)
PAK6 (human) = PAK6 (human) (UniProt Q9NQU5)
PAK7 (human) = PAK7 (human) (UniProt Q9P286)
PIM2 (human) = PIM2 (human) (UniProt Q9P1W9)
PIM3 (human) = PIM3 (human) (UniProt Q86V86)
PKN2 (human) = PKN2 (human) (UniProt Q16513)
PLK1 (human) = PLK1 (human) (UniProt P53350)
RIPK2 (human) = RIPK2 (human) (UniProt O43353)
RPS6KA3 KD1 KD2 (human) = RPS6KA3 KD1 KD2 (human) (UniProt P51812)
RPS6KA5 KD1 KD2 (human) = RPS6KA5 KD1 KD2 (human) (UniProt O75582)
SRPK1 (human) = SRPK1 (human) (UniProt Q96SB4)
[3] = tested on: SGK1 (human), O00141 [S422D]

Sequence of HIPK3 (human) (Q9H422 whole entry, looked up): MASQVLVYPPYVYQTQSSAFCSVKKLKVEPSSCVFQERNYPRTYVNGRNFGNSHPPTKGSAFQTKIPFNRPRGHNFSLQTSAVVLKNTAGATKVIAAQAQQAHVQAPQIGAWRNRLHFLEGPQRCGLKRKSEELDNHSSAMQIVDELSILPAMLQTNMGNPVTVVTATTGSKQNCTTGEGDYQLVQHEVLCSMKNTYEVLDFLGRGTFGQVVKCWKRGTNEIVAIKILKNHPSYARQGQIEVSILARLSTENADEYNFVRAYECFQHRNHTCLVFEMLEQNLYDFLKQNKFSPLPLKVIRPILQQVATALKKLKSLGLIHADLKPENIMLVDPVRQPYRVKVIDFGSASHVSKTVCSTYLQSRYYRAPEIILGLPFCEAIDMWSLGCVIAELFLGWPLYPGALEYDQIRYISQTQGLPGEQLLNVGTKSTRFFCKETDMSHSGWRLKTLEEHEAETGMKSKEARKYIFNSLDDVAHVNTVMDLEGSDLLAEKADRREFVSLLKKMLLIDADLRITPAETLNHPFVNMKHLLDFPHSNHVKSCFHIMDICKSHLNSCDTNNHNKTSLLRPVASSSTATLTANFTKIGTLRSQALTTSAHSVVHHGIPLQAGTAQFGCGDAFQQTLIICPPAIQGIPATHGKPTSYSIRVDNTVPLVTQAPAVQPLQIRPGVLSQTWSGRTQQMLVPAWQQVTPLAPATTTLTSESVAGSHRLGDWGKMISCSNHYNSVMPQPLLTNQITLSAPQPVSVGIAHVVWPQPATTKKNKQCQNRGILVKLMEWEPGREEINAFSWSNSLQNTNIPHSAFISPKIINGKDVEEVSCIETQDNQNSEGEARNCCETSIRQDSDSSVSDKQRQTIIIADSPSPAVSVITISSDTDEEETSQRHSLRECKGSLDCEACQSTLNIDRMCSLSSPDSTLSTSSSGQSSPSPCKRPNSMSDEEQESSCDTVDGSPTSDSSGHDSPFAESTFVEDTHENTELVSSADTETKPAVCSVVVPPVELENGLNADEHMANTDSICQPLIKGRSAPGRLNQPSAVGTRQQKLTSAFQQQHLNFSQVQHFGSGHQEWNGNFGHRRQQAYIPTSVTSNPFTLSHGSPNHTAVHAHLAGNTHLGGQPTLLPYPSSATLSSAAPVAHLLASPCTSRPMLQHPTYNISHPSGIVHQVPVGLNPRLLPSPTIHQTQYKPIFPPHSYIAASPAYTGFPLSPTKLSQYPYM
Sequence of PIM2 (human) (Q9P1W9 whole entry, looked up): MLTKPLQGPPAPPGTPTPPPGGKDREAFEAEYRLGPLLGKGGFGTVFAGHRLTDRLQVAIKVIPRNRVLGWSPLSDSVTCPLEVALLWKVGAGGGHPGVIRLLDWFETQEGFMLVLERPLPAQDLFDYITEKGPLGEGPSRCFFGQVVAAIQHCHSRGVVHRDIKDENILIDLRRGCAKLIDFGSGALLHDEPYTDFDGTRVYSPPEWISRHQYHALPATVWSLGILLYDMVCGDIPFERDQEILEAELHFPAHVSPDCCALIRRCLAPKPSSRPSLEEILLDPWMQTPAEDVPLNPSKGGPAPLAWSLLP
Sequence of PAK4 (human) (O96013 whole entry, looked up): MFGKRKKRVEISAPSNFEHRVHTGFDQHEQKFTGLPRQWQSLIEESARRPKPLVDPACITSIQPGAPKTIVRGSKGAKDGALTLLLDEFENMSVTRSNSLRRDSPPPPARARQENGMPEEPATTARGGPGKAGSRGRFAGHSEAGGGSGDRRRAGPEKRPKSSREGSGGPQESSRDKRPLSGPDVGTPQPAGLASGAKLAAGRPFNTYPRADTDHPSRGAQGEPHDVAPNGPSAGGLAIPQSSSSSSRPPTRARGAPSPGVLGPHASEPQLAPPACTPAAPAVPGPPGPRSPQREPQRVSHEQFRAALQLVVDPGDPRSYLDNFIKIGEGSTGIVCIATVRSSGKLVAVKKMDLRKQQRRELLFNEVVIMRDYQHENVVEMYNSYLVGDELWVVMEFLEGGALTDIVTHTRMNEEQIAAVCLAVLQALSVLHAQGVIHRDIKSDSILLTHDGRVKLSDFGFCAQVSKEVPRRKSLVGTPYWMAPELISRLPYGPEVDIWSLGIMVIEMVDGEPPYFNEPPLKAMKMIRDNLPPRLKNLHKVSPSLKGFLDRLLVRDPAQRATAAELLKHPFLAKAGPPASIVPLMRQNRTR
Sequence of PLK1 (human) (P53350 whole entry, looked up): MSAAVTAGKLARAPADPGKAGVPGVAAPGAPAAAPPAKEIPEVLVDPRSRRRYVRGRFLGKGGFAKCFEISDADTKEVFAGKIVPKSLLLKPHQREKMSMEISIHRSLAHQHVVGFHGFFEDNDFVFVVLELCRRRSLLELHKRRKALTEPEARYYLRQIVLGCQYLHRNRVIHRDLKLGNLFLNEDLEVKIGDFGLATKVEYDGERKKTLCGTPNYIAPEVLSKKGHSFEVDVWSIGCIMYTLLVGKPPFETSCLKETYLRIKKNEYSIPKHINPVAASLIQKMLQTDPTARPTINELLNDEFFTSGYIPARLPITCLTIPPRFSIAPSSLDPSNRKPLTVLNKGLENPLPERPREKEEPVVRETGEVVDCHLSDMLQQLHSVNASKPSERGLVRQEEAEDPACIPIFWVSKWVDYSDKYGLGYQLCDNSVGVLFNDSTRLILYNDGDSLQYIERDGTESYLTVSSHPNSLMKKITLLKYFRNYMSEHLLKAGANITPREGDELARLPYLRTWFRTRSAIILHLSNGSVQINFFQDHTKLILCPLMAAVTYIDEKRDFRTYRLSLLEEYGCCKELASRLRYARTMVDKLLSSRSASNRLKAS
Sequence of EPHA4 (human) (P54764 whole entry, looked up): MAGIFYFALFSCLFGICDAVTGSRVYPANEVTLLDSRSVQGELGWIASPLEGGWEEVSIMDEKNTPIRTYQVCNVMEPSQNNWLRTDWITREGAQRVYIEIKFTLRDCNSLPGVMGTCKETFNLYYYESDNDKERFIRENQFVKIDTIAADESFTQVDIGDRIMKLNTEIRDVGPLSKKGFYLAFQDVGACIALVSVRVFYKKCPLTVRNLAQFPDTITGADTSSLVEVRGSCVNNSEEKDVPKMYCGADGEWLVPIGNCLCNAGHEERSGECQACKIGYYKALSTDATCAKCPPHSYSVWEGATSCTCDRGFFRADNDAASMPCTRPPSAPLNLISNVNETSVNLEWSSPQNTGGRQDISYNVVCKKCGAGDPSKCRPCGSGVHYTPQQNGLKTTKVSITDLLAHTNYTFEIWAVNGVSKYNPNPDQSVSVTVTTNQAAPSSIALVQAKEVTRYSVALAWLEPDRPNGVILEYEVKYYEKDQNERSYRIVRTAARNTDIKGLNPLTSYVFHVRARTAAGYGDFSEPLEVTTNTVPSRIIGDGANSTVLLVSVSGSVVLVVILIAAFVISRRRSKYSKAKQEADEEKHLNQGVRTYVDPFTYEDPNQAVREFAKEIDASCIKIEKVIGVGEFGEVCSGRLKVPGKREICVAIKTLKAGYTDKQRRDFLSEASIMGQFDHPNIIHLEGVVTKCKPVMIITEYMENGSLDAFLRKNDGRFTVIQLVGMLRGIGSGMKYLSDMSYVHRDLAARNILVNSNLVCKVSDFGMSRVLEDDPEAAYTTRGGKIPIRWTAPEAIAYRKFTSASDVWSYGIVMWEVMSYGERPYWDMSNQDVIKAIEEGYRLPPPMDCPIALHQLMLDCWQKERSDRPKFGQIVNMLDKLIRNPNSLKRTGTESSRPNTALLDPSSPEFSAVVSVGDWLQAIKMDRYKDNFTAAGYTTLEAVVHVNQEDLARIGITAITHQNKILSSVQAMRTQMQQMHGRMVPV
Sequence of CSNK1D (human) (P48730 whole entry, looked up): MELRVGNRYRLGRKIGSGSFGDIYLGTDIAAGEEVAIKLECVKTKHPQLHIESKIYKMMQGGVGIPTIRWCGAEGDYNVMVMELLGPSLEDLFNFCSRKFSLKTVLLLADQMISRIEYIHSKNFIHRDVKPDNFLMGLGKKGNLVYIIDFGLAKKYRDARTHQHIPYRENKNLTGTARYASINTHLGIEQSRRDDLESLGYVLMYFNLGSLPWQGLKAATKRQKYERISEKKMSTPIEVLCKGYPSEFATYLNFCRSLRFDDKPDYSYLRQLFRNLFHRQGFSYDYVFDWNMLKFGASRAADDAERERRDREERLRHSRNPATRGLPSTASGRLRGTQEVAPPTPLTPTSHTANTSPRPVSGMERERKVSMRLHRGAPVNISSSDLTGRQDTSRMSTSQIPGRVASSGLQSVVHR
Sequence of MAPK14 (human) (Q16539 whole entry, looked up): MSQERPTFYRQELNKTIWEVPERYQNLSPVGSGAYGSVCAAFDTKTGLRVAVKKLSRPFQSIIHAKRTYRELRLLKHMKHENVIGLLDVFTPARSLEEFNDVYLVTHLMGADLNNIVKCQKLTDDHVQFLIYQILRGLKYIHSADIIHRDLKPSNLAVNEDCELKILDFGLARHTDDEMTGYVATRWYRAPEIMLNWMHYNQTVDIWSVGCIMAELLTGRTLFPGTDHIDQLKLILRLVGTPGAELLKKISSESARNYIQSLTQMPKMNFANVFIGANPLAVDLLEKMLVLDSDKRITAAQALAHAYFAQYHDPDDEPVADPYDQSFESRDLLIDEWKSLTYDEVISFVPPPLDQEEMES

`Cc1cc(NC(=O)c2cccc(NC(=O)/C=C/CN(C)C)c2)ccc1Nc1nccc(-c2cccnc2)n1` was tested, and the residual activity ([1]; compound 0.1 µM) was 99%, the residual activity ([1]; compound 1.0 µM) was 91% and the residual activity (CAMKK2 (human); compound 1.0 µM) was 63%. It also gave a residual activity (CHEK1 (human); compound 0.1 µM) of 102%, a residual activity (CHEK1 (human); compound 1.0 µM) of 87% and a residual activity (CLK2 (human); compound 0.1 µM) of 102%. The residual activity (CLK2 (human); compound 1.0 µM) was 88%, the residual activity (CSNK1D (human); compound 0.1 µM) was 89% and the residual activity (CSNK1D (human); compound 1.0 µM) was 57%. For the same compound, the residual activity (DYRK1A (human); compound 0.1 µM) was 98%, the residual activity (DYRK1A (human); compound 1.0 µM) was 84% and the residual activity (EPHA4 (human); compound 0.1 µM) was 87%. The residual activity (EPHA4 (human); compound 1.0 µM) was 80%, the residual activity (HIPK3 (human); compound 0.1 µM) was 97% and the residual activity (HIPK3 (human); compound 1.0 µM) was 90%. The residual activity (IGF1R (human); compound 1.0 µM) was 87%, the residual activity (IKBKE (human); compound 0.1 µM) was 92% and the residual activity (IKBKE (human); compound 1.0 µM) was 94%. It also gave a residual activity (IRAK4 (human); compound 1.0 µM) of 86%, a residual activity (MAP3K7 TAB1 (human); compound 0.1 µM) of 90% and a residual activity (MAP3K7 TAB1 (human); compound 1.0 µM) of 66%. The residual activity (MAPK12 (human); compound 0.1 µM) was 99%, the residual activity (MAPK12 (human); compound 1.0 µM) was 95% and the residual activity (MAPK14 (human); compound 0.1 µM) was 105%. The residual activity (MAPK14 (human); compound 1.0 µM) was 110%, the residual activity (MAPK15 (human); compound 0.1 µM) was 90% and the residual activity (MAPK15 (human); compound 1.0 µM) was 64%. The residual activity (MAPK3 (human); compound 0.1 µM) was 103%, the residual activity (MAPK3 (human); compound 1.0 µM) was 99% and the residual activity (MAPKAPK2 (human); compound 0.1 µM) was 102%. For the same compound, the residual activity (MAPKAPK2 (human); compound 1.0 µM) was 100%, the residual activity (MARK1 (human); compound 0.1 µM) was 114% and the residual activity (MARK2 (human); compound 0.1 µM) was 99%. For the same compound, the residual activity (MARK2 (human); compound 1.0 µM) was 85%, the residual activity (MST4 (human); compound 0.1 µM) was 96% and the residual activity (MST4 (human); compound 1.0 µM) was 79%. It also gave a residual activity (NEK2 (human); compound 0.1 µM) of 105%, a residual activity (NEK2 (human); compound 1.0 µM) of 100% and a residual activity (NEK6 (human); compound 0.1 µM) of 95%. For the same compound, the residual activity (NEK6 (human); compound 1.0 µM) was 87%, the residual activity ([2]; compound 0.1 µM) was 99% and the residual activity ([2]; compound 1.0 µM) was 90%. For the same compound, the residual activity (PAK4 (human); compound 1.0 µM) was 78%, the residual activity (PAK6 (human); compound 0.1 µM) was 110% and the residual activity (PAK6 (human); compound 1.0 µM) was 96%. The residual activity (PAK7 (human); compound 0.1 µM) was 100%, the residual activity (PAK7 (human); compound 1.0 µM) was 82% and the residual activity (PIM2 (human); compound 0.1 µM) was 104%. The residual activity (PIM2 (human); compound 1.0 µM) was 99%, the residual activity (PIM3 (human); compound 1.0 µM) was 83% and the residual activity (PKN2 (human); compound 0.1 µM) was 112%. For the same compound, the residual activity (PKN2 (human); compound 1.0 µM) was 95%, the residual activity (PLK1 (human); compound 0.1 µM) was 98% and the residual activity (PLK1 (human); compound 1.0 µM) was 94%. The residual activity (RIPK2 (human); compound 0.1 µM) was 82%, the residual activity (RIPK2 (human); compound 1.0 µM) was 49% and the residual activity (RPS6KA3 KD1 KD2 (human); compound 0.1 µM) was 82%. The residual activity (RPS6KA3 KD1 KD2 (human); compound 1.0 µM) was 76%, the residual activity (RPS6KA5 KD1 KD2 (human); compound 0.1 µM) was 91% and the residual activity (RPS6KA5 KD1 KD2 (human); compound 1.0 µM) was 80%. For the same compound, the residual activity (SRPK1 (human); compound 0.1 µM) was 97% and the residual activity (SRPK1 (human); compound 1.0 µM) was 84%.
`NCC(=O)Nc1ccc(-n2nc(C(F)(F)F)cc2-c2ccc3c(ccc4ccccc43)c2)cc1` showed a residual activity ([1]; compound 1.0 µM) of 87%, a residual activity ([1]; compound 10.0 µM) of 54% and a residual activity (CAMKK2 (human); compound 10.0 µM) of 115%. The residual activity (CHEK1 (human); compound 1.0 µM) was 72%, the residual activity (CHEK1 (human); compound 10.0 µM) was 44% and the residual activity (CLK2 (human); compound 1.0 µM) was 93%. For the same compound, the residual activity (CLK2 (human); compound 10.0 µM) was 64%, the residual activity (CSNK1D (human); compound 1.0 µM) was 96% and the residual activity (CSNK1D (human); compound 10.0 µM) was 93%. It also gave a residual activity (DYRK1A (human); compound 10.0 µM) of 82%, a residual activity (EPHA4 (human); compound 1.0 µM) of 80% and a residual activity (EPHA4 (human); compound 10.0 µM) of 91%. It also gave a residual activity (HIPK3 (human); compound 1.0 µM) of 94%, a residual activity (HIPK3 (human); compound 10.0 µM) of 64% and a residual activity (IGF1R (human); compound 10.0 µM) of 105%. For the same compound, the residual activity (IKBKE (human); compound 10.0 µM) was 101%, the residual activity (IRAK4 (human); compound 1.0 µM) was 84% and the residual activity (IRAK4 (human); compound 10.0 µM) was 79%. It also gave a residual activity (MAP3K7 TAB1 (human); compound 1.0 µM) of 74%, a residual activity (MAP3K7 TAB1 (human); compound 10.0 µM) of 36% and a residual activity (MAPK12 (human); compound 1.0 µM) of 94%. For the same compound, the residual activity (MAPK12 (human); compound 10.0 µM) was 70%, the residual activity (MAPK14 (human); compound 1.0 µM) was 100% and the residual activity (MAPK14 (human); compound 10.0 µM) was 80%. The residual activity (MAPK15 (human); compound 1.0 µM) was 79%, the residual activity (MAPK15 (human); compound 10.0 µM) was 75% and the residual activity (MAPK3 (human); compound 1.0 µM) was 80%. It also gave a residual activity (MAPK3 (human); compound 10.0 µM) of 63%, a residual activity (MAPKAPK2 (human); compound 1.0 µM) of 91% and a residual activity (MAPKAPK2 (human); compound 10.0 µM) of 95%. The residual activity (MARK1 (human); compound 1.0 µM) was 87%, the residual activity (MARK1 (human); compound 10.0 µM) was 79% and the residual activity (MARK2 (human); compound 1.0 µM) was 94%. It also gave a residual activity (MARK2 (human); compound 10.0 µM) of 89%, a residual activity (MST4 (human); compound 1.0 µM) of 80% and a residual activity (MST4 (human); compound 10.0 µM) of 72%. It also gave a residual activity (NEK2 (human); compound 1.0 µM) of 96%, a residual activity (NEK2 (human); compound 10.0 µM) of 92% and a residual activity (NEK6 (human); compound 1.0 µM) of 115%. The residual activity (NEK6 (human); compound 10.0 µM) was 63%, the residual activity ([2]; compound 1.0 µM) was 107% and the residual activity ([2]; compound 10.0 µM) was 75%. The residual activity (PAK4 (human); compound 1.0 µM) was 84%, the residual activity (PAK4 (human); compound 10.0 µM) was 70% and the residual activity (PAK6 (human); compound 1.0 µM) was 88%. The residual activity (PAK6 (human); compound 10.0 µM) was 28%, the residual activity (PAK7 (human); compound 1.0 µM) was 87% and the residual activity (PAK7 (human); compound 10.0 µM) was 107%. It also gave a residual activity (PIM2 (human); compound 1.0 µM) of 93%, a residual activity (PIM2 (human); compound 10.0 µM) of 98% and a residual activity (PIM3 (human); compound 1.0 µM) of 99%. It also gave a residual activity (PIM3 (human); compound 10.0 µM) of 64%, a residual activity (PKN2 (human); compound 1.0 µM) of 85% and a residual activity (PKN2 (human); compound 10.0 µM) of 63%. It also gave a residual activity (PLK1 (human); compound 1.0 µM) of 95%, a residual activity (PLK1 (human); compound 10.0 µM) of 111% and a residual activity (RIPK2 (human); compound 1.0 µM) of 93%. It also gave a residual activity (RIPK2 (human); compound 10.0 µM) of 81%, a residual activity (RPS6KA5 KD1 KD2 (human); compound 1.0 µM) of 110% and a residual activity (RPS6KA5 KD1 KD2 (human); compound 10.0 µM) of 46%. For the same compound, the residual activity ([3]; compound 1.0 µM) was 71%, the residual activity ([3]; compound 10.0 µM) was 30% and the residual activity (SRPK1 (human); compound 1.0 µM) was 94%. It also gave a residual activity (SRPK1 (human); compound 10.0 µM) of 80%.
